# Experimental data reported in patent publication US10251902B2, “Pharmaceutical composition for treating or preventing neuropsychiatric disease, containing flavone-6-C-glucose derivatives as active ingredients” (priority 2013, dated 2019).
# How the values were obtained:
# [1] = tested on: model of memory impairment induced by scopolamine; test: Passive avoidance test in scopolamine-induced memory impairment model; assay type: in vivo, ICR mice; conditions: for Main Experiment / Passive Avoidance Learning: Table 2, scopolamine 1 mg/Kg i.p.; for Main Experiment: latency 24 h after learning, up to 300 seconds; for Passive Avoidance Learning: latency in learning trial; for latency time extended compared to that of the control 2: main experiment, control 2 = scopolamine
# Description: An experiment was conducted to confirm effects of swertisin or isoorientin, and extracts of Swertia pseudochinensis or Swertia japonica containing the same prepared in Examples 1 to 3 in treating dementia by using a model of memory impairment induced by scopolamine. Detailed method follows.
# (§1) Six-week old ICR mice in about 26 g to 28 g (Orientbio Inc, Republic of Korea) were received water and feed without constraint and adapted for 5 days under an environment having about 23±1° C. of temperature, about 60±10% of humidity and 12-hour light/dark cycle (animal laboratory at College of Pharmacy, Kyung-Hee University), and then used for the experiment.
# An apparatus for measuring passive avoidance reaction was prepared. The apparatus has 2 separated chambers (the first and second chambers) and there is a guillotine-shaped passage that connects the first chamber and the second chamber. The first chamber was maintained brightly by using a light, and the second chamber was maintained darkly. A grid was installed on the floor of the second chamber. The grid generates 0.5 mA of electric shock for 3 seconds when the laboratory animal moved into the dark chamber.
# About 30 minutes later, 1 mg/Kg of scopolamine, which was dissolved in distilled water, was intraperitoneally administered to the drug administration groups 1 to 4 and controls 1 and 2 (Ebert, U. et al., Eur. J. Clin. Invest., 28, pp 944-949, 1998), and 0.9% of saline solution was intraperitoneally administered to the control 3. After 30 minutes, passive avoidance learning was conducted on the drug administration groups 1-4 and controls 1-3. In detail, the mice were located in the first chamber (i.e. bright space) and the passage was open after about 20 seconds of observation time, and then latency time of the mice moving to the second chamber (i.e. dark space) was measured.
# Twenty-four hours after the passive avoidance learning, a main experiment was conducted on the drug administration groups 1-4 and controls 1-3. Latency time of the mice of each group moving their 4 legs into the dark space after 10 seconds of observation time from opening of the guillotine-shaped passage was measured up to 300 seconds. It means that the passive avoidance learning and memory are better if the latency time is longer.
# The passive avoidance test was conducted on the drug administration groups 1-4 and controls 1-3 in the same manner as the method explained above except that swertisin, which is one of the flavone-6-C-β-D-glucose derivatives prepared in Example 3, was dissolved in 10% Tween 80 and administered to the drug administration groups 1-4 in amounts of 1.25 mg/kg, 2.5 mg/kg, 5 mg/kg and 10 mg/kg respectively.
# The passive avoidance test was conducted on the drug administration groups 1-4 and controls 1-3 in the same manner as Experimental Example 1-1 except that isoorientin, which is one of the flavone-6-C-β-D-glucose derivatives prepared in Example 3, was dissolved in 10% Tween 80 and administered to the drug administration groups 1-4 in amounts of 1.25 mg/kg, 2.5 mg/kg, 5 mg/kg and 10 mg/kg respectively.
# The passive avoidance test was conducted on the drug administration groups 1-3 and controls 1-3 in the same manner as Experimental Example 1-1 except that a 70% ethanol extract of Swertia japonica prepared in Example 1, was dissolved in 10% Tween and administered to the drug administration groups 1-3 in amounts of 100 mg/kg, 200 mg/kg and 400 mg/kg respectively.
# The passive avoidance test was conducted on the drug administration groups 1-3 and controls 1-3 in the same manner as Experimental Example 1-1 except that a 70% ethanol extract of Swertia pseudochinensis prepared in Example 2, was dissolved in 10% Tween 80 and administered to the drug administration groups 1-3 in amounts of 100 mg/kg, 200 mg/kg and 400 mg/kg respectively.
# [2] = tested on: anxiety symptoms in a normal status; test: Marble burying test; assay type: in vivo, ICR mice; conditions: swertisin 10 mg/kg
# Description: as §1
# As a method of measuring alleviation of anxiety symptoms in a normal status, the marble burying test was conducted based on the nature of mice that they dig when feel anxiety. Inside of a cage in size of 40 cm s 27 cm s 18 cm was covered with straw to the height of 4 cm, and 25 marbles having same pattern were arranged at intervals of 3 cm. Two groups (10 mice per each group) were prepared as the drug administration group 1, wherein swertisin, which is one of the flavone-6-C-β-D-glucose derivatives prepared in Example 3, was administered, and the control 1. […]
# After 60 minutes of administration, mice of the drug administration group 1 and the control 1 were carefully located in the cage having the marbles and the mice were allowed to move freely for 30 minutes. After 30 minutes, the number of buried marbles under straw was counted. […] The more the number of buried marbles, it was assessed that the laboratory animal feels anxiety severer (Broekkamp, C L. et al., Eur J Pharmacol., 126, pp 223-229, 1986).
smiles,measurement,setting,value
COc1cc2oc(-c3ccc(O)cc3)cc(=O)c2c(O)c1[C@@H]1O[C@H](CO)[C@@H](O)[C@H](O)[C@H]1O [swertisin],Main Experiment,[1]; swertisin 1.25 mg/kg,67.13 ± 26.08 s
same,Passive Avoidance Learning,[1]; swertisin 1.25 mg/kg,30.20 ± 14.53 s
same,Main Experiment,[1]; swertisin 2.5 mg/kg,82.11 ± 35.20 s
same,Passive Avoidance Learning,[1]; swertisin 2.5 mg/kg,19.10 ± 10.37 s
same,Main Experiment,[1]; swertisin 5 mg/kg,117.3 ± 44.16 s
same,Passive Avoidance Learning,[1]; swertisin 5 mg/kg,20.40 ± 10.11 s
same,Main Experiment,[1]; swertisin 10 mg/kg,117.7 ± 52.28 s
same,Passive Avoidance Learning,[1]; swertisin 10 mg/kg,29.70 ± 18.76 s
same,latency time extended compared to that of the control 2,[1]; swertisin 1.25 mg/Kg,about 2 fold
same,latency time extended compared to that of the control 2,[1]; swertisin 2.5 mg/Kg,about 2.5 fold
same,latency time extended compared to that of the control 2,[1]; swertisin 5 mg/Kg,about 3 fold
same,latency time extended compared to that of the control 2,[1]; swertisin 10 mg/Kg,about 3 fold
same,"number of the buried marbles compared to that of the control 1, in words",[2],decreased
same,Number of Buried Marbles,"[2]; 60 minutes after administration, 30 minutes in cage, 25 marbles",21.78 ± 1.856
